Tests used:
3D AD model (#A5) = experiment: RNA-seq canonical pathway analysis of 3D AD cultures treated with anti-Aβ drugs; type: cell-based, human; conditions: anti-Aβ drug treatment versus DMSO
Text: FIG. 15. […] Pearson correlations of global gene expression profile among 2D undifferentiated control ReN cells, 3D control (G2# B2on), AD # A5 (# A5, moderate Aβ42/40 ratio ˜0.2), AD # D4 (# D4, high Aβ42/40 ratio, ˜1.4), and AD # H10 (# H10, extra high Aβ42/40 ratio, ˜1.7). Units are log CPM. b. Volcano plots show −log10(FDR) vs log FC distribution for G2# B2 (control) vs AD # A5 (AD), AD # A5 DMSO vs AD # A5 BSI (BACE inhibitor, Ly2886721), and AD # A5 DMSO vs AD # A5 GSM (gamma secretase modulator, SGSM15606) transcriptomic signatures. […] Canonical pathway analysis between G2# B2 and AD # A5 (Ingenuity pathway analysis, Qiagen). d. Analysis of common canonical pathways. The pathway analysis among G2# B2 vs AD # A5, AD # A5 DMSO vs AD # A5 BSI, and AD # A5 DMSO vs AD # A5 GSM. Activation z-scores indicate that majority of decreased pathways in AD # A5 are restored by BSI and/or GSM treatments. e. […]
To examine the multiple single-clonal AD models, unbiased whole genome RNA-seq analyses were performed to compare gene expression profiles among the clonal AD models with different Aβ42/40 ratios, as compared to control 3D cultures and undifferentiated 2D control cells (FIG. 15a-d). […] Differential gene expression profile of 3D AD cultures were analyzed after treating anti-Aβ drugs (BACE1 inhibitor, Ly2886721; Gamma-secretase modulator (GSM), GSM15606) (FIG. 15b). […]

[1] = tested on: phospho-tau (AT8) in ReNCell VM cells carrying the APPSL mutation; experiment: High-content screen of phospho-tau (AT8) staining in 3D cultured FAD neural stem cells; type: cell-based, human; conditions: for inhibition of pTau / tau hyperphosphorylation: primary screen of 2,640 compounds, compound added from the beginning of culture, whole-well AT8 images
Text: FIG. 1. High-content screening. FAD-transfected neural stem cells were 3D cultured in matrigel and treated with each compound. Cells were stained with phospho-tau antibody (AT8). Images covering the whole well were taken and quantified as the readout.
A 3D human neural culture model of AD was developed by culturing ReNCell VM cells carrying the APPSL mutation in a thin layer (50˜100 μm thick) of Matrigel. This method was then miniaturized to 96, 384, or other high content well plate formats (FIG. 1) to provide a faithful model for testing the effect of compounds on AD. However, the high-throughput screening is limited by its readout of microscopy images, which cannot be analyzed manually in large quantity.
To enable high-throughput in vitro screening, an image-processing program was developed, based on NeuriteIQ software^17-23 (FIG. 2A), to automatically quantify tau phosphorylation from images of cultured cells. The program processes images from th e nucleus and neurite channels separately. In the nucleus channel, nuclei are detected and segmented by local maximum detection and watershed method. In the neurite channel, phospho-tau stained cells are treated as two-dimensional curvilinear structures and processed based on the local Hessian matrix^24,25, which allows the detection of center points and local directions of neurites in a field. The program reliably quantified the number of neurons with hyper-phosphorylated tau (FIG. 2B). Thus, a high-content screening system for the identification of compounds targeting the tau pathology in AD was established.
Known drug and bioactive compounds (2,640 compounds) were selected for the initial screen from the Sigma-Aldrich LOPAC (1280), Tocriscreen Total Library (1120), and a manual selection of 240 Kinase Inhibitors. […] A few of the 38 compounds have been previously reported to inhibit tau phosphorylation in AD animal models (e.g., baicalein^26 and tretinoin^27), further validating the credibility of the screen. Most, however, are novel AD candidates.

[2] = tested on: pTau in AD-in-a-dish model; experiment: Validation of SMART-predicted compounds in the reformatted high content AD-in-a-dish model; design: species or system human; conditions: cell-based validation of 26 purchased SMART predictions
Text: Twenty-two of the 38 aforementioned screening hits had LINCS data covering the perturbation profiles for at least 4 cell lines. From these 22 hits, 2 were eliminated because no known drug candidates ranked high enough based on transcriptomic similarities to these two primary hits; and 3 others were removed upon inspection of the compound properties of the predictions they made, i.e., the predicted drugs may be toxic or unfit for systematic use. Thus, the 17 primary hits shown in Table 1 were used to initiate a pilot run using the SMART framework. The cMAP algorithm^7 was used to rank all compounds in the LINCSCloud, based on the similarity of transcriptomic profiles to each of the 17 primary hits. If any compound was determined by cMAP algorithm to have a similarity score larger than 90 to at least one of the primary hits, it was identified as a hit candidate. After filtering based on pharmacology features, 85 candidates predicted by 17 primary hits (Table 1) remained; 26 of these 85 compounds were purchased for validation after analysis for pharmacology and medical practice features.

tau phosphorylation = conditions: previously reported; cited from earlier work
[3] = tested on: 3D AD cell model transcriptome; experiment: Whole genome RNAseq after compound treatment versus control; type: cell-based, human; conditions: for immune and inflammatory related pathways (5 of 6 connected to 12 down-regulated genes): after treatment versus control; for down-regulated genes in PPI subnetwork, shared by both treatments / up-regulated genes in PPI subnetwork, shared by both treatments: |log FC|>1.5 versus control
Text: PPI information was extracted from STRING database version 10.5 with the cutoff for confidence score at 0.4.
Given ebselen and leflunomide in FIG. 17, an unbiased whole genome RNAseq analysis was used to obtain transcriptomic profiles after the treatment of each compound and compare them separately to control conditions. For both treatments, a subset of genes and pathways show significant change (|log FC|>1.5) in the same direction over control condition. […] These 22 genes have 102 PPI pairs among them, and there are 7 genes directly connected to APP (coding Aβ) or MAPT (coding Tau).
It's worth noting that the enrichment of immune and inflammatory related pathway changes is consistent with the characteristics of the 3D cell model, as this system contains astrocytes, which is one of the brain innate immune cells. […] Also, neuroinflammatory pathways are highly unregulated in high Abeta42/40 lines (D4 and H10) as compared to A5 (similar to GA2) (data not shown).

p-tau (pSer396/Ser404) = experiment: Quantitative immunofluorescence staining in 3D AD models with high Aβ42/40 ratios; type: cell-based, human; conditions: 5 μM for 3 weeks
Text: FIG. 17. Validation of primary hit candidates. Primary hit candidates were confirmed using Western blot analysis (a) and quantitative immunofluorescence staining in 3D AD models with high Aβ42/40 ratios (# HReN and # A4H1) (b). PHF1 pSer396/Ser404 tau antibody was used to detect changes in phospho tau in 3D AD # HReN cells treated with DMSO vehicle, ebselen, or leflunomide.
In addition to MSD Mesoscale ELISA shown in FIG. 16, quantitative Western blot and immunofluorescence analysis were used to validate candidate drugs. […] Ebselen and leflunomide are compounds screened from original HCS screening of […] biologically active/FDA-approved drug library. […] Moreover, quantitative immunofluorescence staining was used to analyze p-tau changes after treating these compounds.

COc1nc(-c2cc(C)c(NC(C)c3ccc(F)cc3)nn2)ccc1-n1cnc(C)c1 (centres unmarked) [GSM15606]
enriched canonical pathways of the 3D AD model (3D AD model (#A5)): significantly altered

NC1=N[C@@]2(c3cc(NC(=O)c4ccc(F)cn4)ccc3F)COC[C@H]2CS1 [Ly2886721]
enriched canonical pathways of the 3D AD model (3D AD model (#A5)): significantly altered

CC[N+](CC)(CC)CCOc1ccc(/C=C/c2ccccc2)cc1 [MG624, mg 624]
tau phosphorylation, late addition ([1]; compound added after week 2, when tau phosphorylation should have already developed): significantly reduced
tau phosphorylation, late addition ([1]; compound added after week 4, cells fixed and stained at week 6): significantly reduced
inhibition of pTau / tau hyperphosphorylation [1]: almost completely inhibited

C1CCC(C(CC2CCCCN2)C2CCCCC2)CC1.O=C(O)/C=C\C(=O)O (centres unmarked) [Perhexiline, perhexiline maleate]
inhibition of pTau [2]: successful predictions

O=c1cc(-c2ccccc2)oc2cc(O)c(O)c(O)c12 [baicalein]
tau phosphorylation in AD animal models (tau phosphorylation): inhibit

Oc1c(Cl)cc(Cl)c2cccnc12 [chloroxine]
inhibition of pTau [2]: validated hits

O=c1c2ccccc2[se]n1-c1ccccc1 [ebselen]
immune and inflammatory related pathways (5 of 6 connected to 12 down-regulated genes) [3]: significantly down-regulated
down-regulated genes in PPI subnetwork, shared by both treatments [3]: 15 genes
up-regulated genes in PPI subnetwork, shared by both treatments [3]: 7 genes

CCC(C)[C@H]1O[C@]2(CC[C@@H]1C)C[C@@H]1C[C@@H](C/C=C(\C)[C@@H](O[C@H]3C[C@H](OC)[C@@H](O[C@H]4C[C@H](OC)[C@@H](O)[C@H](C)O4)[C@H](C)O3)[C@@H](C)/C=C/C=C3\CO[C@@H]4[C@H](O)C(C)=C[C@@H](C(=O)O1)[C@]34O)O2 (some centres unmarked) [ivermectin]
inhibition of pTau / tau hyperphosphorylation [1]: almost completely inhibited
inhibition of pTau / tau hyperphosphorylation ([1]; listed as Ivermectin): most significant phenotype

Cc1oncc1C(=O)Nc1ccc(C(F)(F)F)cc1 [leflunomide]
immune and inflammatory related pathways (5 of 6 connected to 12 down-regulated genes) [3]: significantly down-regulated
down-regulated genes in PPI subnetwork, shared by both treatments [3]: 15 genes
up-regulated genes in PPI subnetwork, shared by both treatments [3]: 7 genes
cellular viability and neurite networks (p-tau (pSer396/Ser404)): without affecting
p-tau (pSer396/Ser404) accumulation (p-tau (pSer396/Ser404)): robustly decreased

N=C(N)c1ccc(OCCCCCOc2ccc(C(=N)N)cc2)cc1 [pentamidine, pentamidine isethionate]
inhibition of pTau / tau hyperphosphorylation [1]: almost completely inhibited

CC1=C(/C=C/C(C)=C/C=C/C(C)=C/C(=O)O)C(C)(C)CCC1 [retinoic acid]
tau phosphorylation in AD animal models (tau phosphorylation): inhibit
